Experimental data published in patent publication US20210070748A1, “INHIBITORS OF BRUTONS TYROSINE KINASE” (Pharmacyclics LLC, priority 2015, published 2021).

What was measured:
Assay type in all cases: biochemical
JAK3 = molecular target: T1, JAK3 (Homo sapiens, UniProt P52333); assay: Inhibition of a panel of kinases, in vitro HotSpot kinase assay: JAK3; conditions: D-compounds panel data; 1 μM ATP; read-out: IC50 JAK3
T1 sequence (P52333 1-1124): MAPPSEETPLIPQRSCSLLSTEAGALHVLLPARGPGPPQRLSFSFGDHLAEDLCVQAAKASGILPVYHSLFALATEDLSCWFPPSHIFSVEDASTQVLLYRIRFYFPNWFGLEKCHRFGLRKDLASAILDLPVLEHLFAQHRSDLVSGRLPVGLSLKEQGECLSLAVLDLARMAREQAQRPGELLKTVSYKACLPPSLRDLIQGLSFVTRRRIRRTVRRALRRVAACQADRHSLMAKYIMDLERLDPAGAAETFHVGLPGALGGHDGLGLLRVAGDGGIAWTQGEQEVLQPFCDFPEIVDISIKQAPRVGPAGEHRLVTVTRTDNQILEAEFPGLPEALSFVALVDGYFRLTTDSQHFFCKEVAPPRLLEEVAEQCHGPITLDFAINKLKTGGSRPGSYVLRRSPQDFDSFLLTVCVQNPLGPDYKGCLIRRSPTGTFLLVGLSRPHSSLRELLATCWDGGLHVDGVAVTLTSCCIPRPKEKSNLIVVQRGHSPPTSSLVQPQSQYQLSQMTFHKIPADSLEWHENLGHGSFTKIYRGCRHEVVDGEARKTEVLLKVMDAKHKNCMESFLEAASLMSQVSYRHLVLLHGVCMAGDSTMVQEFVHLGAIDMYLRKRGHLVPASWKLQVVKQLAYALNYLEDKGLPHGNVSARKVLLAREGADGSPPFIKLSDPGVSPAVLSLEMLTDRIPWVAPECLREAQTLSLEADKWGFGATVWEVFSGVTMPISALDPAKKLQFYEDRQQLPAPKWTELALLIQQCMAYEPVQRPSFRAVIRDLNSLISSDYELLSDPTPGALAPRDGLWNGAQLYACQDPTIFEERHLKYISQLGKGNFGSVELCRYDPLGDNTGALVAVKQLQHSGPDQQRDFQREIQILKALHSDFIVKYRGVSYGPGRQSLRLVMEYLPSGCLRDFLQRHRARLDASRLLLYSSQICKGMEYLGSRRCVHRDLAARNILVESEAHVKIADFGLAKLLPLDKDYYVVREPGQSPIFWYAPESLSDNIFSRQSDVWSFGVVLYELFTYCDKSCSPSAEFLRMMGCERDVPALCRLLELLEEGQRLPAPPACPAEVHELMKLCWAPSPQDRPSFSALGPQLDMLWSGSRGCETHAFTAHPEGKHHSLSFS

LCK = LCK (Homo sapiens, UniProt P06239); assay: Inhibition of a panel of kinases, in vitro HotSpot kinase assay: LCK; conditions: D-compounds panel data; 1 μM ATP; read-out: IC50 LCK
LCK, sequence (P06239 whole entry): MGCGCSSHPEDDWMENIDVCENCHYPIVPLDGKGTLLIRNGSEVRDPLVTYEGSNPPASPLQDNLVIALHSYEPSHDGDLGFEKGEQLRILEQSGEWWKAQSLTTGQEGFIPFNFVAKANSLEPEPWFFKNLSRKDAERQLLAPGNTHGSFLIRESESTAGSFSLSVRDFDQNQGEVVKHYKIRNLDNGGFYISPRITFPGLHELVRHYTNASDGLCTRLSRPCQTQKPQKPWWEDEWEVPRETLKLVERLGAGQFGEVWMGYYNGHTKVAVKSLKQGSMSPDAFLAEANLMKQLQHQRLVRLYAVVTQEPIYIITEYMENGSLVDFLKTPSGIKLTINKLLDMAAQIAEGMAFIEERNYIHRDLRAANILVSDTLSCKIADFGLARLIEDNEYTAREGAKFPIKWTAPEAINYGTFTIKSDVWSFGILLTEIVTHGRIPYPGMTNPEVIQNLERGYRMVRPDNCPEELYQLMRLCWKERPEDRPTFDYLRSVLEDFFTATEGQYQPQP

ITK = molecular target: T2, ITK (Homo sapiens, UniProt Q08881); assay: Inhibition of a panel of kinases, in vitro HotSpot kinase assay: ITK; conditions: D-compounds panel data; 1 μM ATP
T2 sequence (Q08881 1-620): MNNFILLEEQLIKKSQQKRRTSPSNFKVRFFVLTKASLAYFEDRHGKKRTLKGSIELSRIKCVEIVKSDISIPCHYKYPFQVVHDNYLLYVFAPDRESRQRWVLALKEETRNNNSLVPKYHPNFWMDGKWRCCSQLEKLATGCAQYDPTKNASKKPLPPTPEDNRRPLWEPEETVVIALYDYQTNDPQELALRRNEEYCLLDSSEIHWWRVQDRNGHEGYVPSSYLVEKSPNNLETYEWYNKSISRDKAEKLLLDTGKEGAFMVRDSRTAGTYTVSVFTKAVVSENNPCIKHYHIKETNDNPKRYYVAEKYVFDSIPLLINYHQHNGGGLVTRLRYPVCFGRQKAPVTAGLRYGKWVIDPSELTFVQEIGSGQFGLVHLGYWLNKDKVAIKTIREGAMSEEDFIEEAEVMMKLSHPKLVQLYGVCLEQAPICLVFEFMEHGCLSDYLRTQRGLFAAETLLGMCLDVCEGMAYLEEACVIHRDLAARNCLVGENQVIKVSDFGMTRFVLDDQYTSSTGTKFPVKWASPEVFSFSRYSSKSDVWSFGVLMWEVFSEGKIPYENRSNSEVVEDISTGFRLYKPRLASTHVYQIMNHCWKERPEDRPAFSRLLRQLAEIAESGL
Method: (§1) The degree of inhibition of a panel of kinases is determined using the in vitro HotSpot kinase assay (purified enzymes, ^33P-ATP, an appropriate substrate and 1 μM ATP).

SRC = SRC (Homo sapiens, UniProt P12931); assay: Inhibition of a panel of kinases, in vitro HotSpot kinase assay: SRC; conditions: D-compounds panel data; 1 μM ATP
SRC, sequence (P12931 whole entry): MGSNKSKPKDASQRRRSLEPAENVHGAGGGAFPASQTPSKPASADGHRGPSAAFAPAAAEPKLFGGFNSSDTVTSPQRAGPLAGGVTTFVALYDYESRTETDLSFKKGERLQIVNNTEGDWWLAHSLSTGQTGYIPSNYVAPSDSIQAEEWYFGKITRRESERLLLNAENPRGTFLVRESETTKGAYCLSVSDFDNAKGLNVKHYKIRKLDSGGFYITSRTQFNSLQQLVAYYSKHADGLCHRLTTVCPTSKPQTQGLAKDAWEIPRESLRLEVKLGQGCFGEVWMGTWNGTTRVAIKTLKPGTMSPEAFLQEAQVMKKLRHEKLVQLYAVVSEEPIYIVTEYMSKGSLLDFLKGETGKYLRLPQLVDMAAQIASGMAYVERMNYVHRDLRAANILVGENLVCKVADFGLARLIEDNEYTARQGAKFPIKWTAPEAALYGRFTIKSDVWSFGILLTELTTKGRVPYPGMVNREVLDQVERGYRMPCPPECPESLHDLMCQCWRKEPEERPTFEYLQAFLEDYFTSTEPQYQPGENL
Method: as §1

TEC = molecular target: T3, TEC (Homo sapiens, UniProt P42680); assay: Inhibition of a panel of kinases, in vitro HotSpot kinase assay: TEC; conditions: D-compounds panel data; 1 μM ATP
T3 sequence (P42680 1-631): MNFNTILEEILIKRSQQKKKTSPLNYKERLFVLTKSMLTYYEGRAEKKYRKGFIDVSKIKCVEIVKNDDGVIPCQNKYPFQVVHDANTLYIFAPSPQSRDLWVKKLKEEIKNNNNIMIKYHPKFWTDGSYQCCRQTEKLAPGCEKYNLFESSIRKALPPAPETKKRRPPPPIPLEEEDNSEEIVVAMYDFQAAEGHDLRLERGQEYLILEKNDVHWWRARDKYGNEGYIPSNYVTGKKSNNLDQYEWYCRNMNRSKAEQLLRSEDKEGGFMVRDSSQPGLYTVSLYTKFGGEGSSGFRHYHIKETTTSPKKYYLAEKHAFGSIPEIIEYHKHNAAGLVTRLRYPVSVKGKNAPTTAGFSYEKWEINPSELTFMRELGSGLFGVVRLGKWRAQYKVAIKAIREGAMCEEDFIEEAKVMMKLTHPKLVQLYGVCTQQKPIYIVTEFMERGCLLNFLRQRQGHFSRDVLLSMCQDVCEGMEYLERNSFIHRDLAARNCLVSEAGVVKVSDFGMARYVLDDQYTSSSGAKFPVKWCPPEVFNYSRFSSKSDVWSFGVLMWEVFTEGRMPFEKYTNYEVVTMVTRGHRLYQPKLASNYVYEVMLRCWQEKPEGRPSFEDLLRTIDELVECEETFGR
Method: as §1

Row | SMILES | IC50 (JAK3) [nM] | IC50 (LCK) [nM] | IC50 (ITK) [nM] | IC50 (SRC) [nM] | IC50 (TEC) [nM]
1 | C[C@@H]1[C@H](NC(=O)c2ccc(C3CC3)cc2)CCCN1c1cnc(C(N)=O)c(Nc2ccc(OC3C[C@H]4CC[C@@H](C3)N4C)cc2)n1 (stereo partly drawn) [Example D-104, 5-[(2R,3R)-3-(4-cyclopropylbenzamido)-2-methylpiperidin-1-yl]-3-[(4-{[(1R,5S)-8-methyl-8-azabicyclo[3.2.1]octan-3-yl]oxy}phenyl)amino]pyrazine-2-carboxamide] | 100 to 1000 | 10 to 100 | 10 to 100 | 10 to 100 | ≤ 10
2 | Cc1cccc(-c2cnc(C3CCCN(c4cnc(C(N)=O)c(Nc5cnn(C)c5)n4)C3)[nH]2)c1 [Example D-148, 3-[(1-methyl-1H-pyrazol-4-yl)amino]-5-{3-[5-(3-methylphenyl)-1H-imidazol-2-yl]piperidin-1-yl}pyrazine-2-carboxamide] | 1000 to 10000 | 100 to 1000 | 1000 to 10000 | 100 to 1000 | 100 to 1000
3 | C[C@@H]1[C@H](NC(=O)c2ccc(C(C)(C)O)c(F)c2)CCCN1c1cnc(C(N)=O)c(Nc2cnn(C)c2)n1 [Example D-160, 5-[(2R,3R)-3-[3-fluoro-4-(2-hydroxypropan-2-yl)benzamido]-2-methylpiperidin-1-yl]-3-[(1-methyl-1H-pyrazol-4-yl)amino]pyrazine-2-carboxamide] | 100 to 1000 | 10 to 100 | 100 to 1000 | 10 to 100 | ≤ 10
4 | C[C@H]1CC[C@@H](NC(=O)c2ccc(C(C)(C)O)cc2)CN1c1nnc(C(N)=O)c(Nc2cnn(C)c2)n1 [Example D-157, 3-[(2S,5R)-5-[4-(2-hydroxypropan-2-yl)benzamido]-2-methylpiperidin-1-yl]-5-[(1-methyl-1H-pyrazol-4-yl)amino]-1,2,4-triazine-6-carboxamide] | 100 to 1000 | 10 to 100 | 10 to 100 | 10 to 100 | ≤ 10
5 | C[C@H]1CC[C@H](NC(=O)c2ccc(C3CC3)cc2)CN1c1cnc(C(N)=O)c(Nc2cnn(C)c2)n1 [Example D-144, 5-[(2S,5S)-5-(4-cyclopropylbenzamido)-2-methylpiperidin-1-yl]-3-[(1-methyl-1H-pyrazol-4-yl)amino]pyrazine-2-carboxamide] | > 10000 | 1000 to 10000 | > 10000 | 1000 to 10000 | 1000 to 10000
6 | CN(C)c1ccc2c(=O)n([C@@H]3CCCN(c4cnc(C(N)=O)c(Nc5cnn(C)c5)n4)C3)ccc2c1 [Example D-155, 5-[(3R)-3-[6-(dimethylamino)-1-oxo-1,2-dihydroisoquinolin-2-yl]piperidin-1-yl]-3-[(1-methyl-1H-pyrazol-4-yl)amino]pyrazine-2-carboxamide] | 100 to 1000 | 100 to 1000 | 100 to 1000 | 100 to 1000 | 10 to 100

More lines, now with the values ahead:

Row | IC50 (JAK3) [nM] | IC50 (LCK) [nM] | IC50 (ITK) [nM] | IC50 (SRC) [nM] | IC50 (TEC) [nM] | SMILES
7 | 100 to 1000 | 10 to 100 | 10 to 100 | 10 to 100 | ≤ 10 | C[C@@H]1[C@H](NC(=O)c2ccc(C3CC3)cc2)CCCN1c1cnc(C(N)=O)c(Nc2ccc(OC3CCCN(C)C3)cc2)n1 (stereo partly drawn) [Example D-105, 5-[(2R,3R)-3-(4-cyclopropylbenzamido)-2-methylpiperidin-1-yl]-3-({4-[(1-methylpiperidin-3-yl)oxy]phenyl}amino)pyrazine-2-carboxamide]
8 | 1000 to 10000 | 10 to 100 | 10 to 100 | 10 to 100 | 10 to 100 | CC(C)N1CCN(c2ccc(Nc3nc(N4CCC[C@@H](NC(=O)c5ccc(C6CC6)cc5F)[C@H]4C)cnc3C(N)=O)cc2)CC1 [Example D-7, 5-[(2R,3R)-3-(4-cyclopropyl-2-fluorobenzamido)-2-methylpiperidin-1-yl]-3-({4-[4-(propan-2-yl)piperazin-1-yl]phenyl}amino)pyrazine-2-carboxamide]
9 | 1000 to 10000 | 10 to 100 | 100 to 1000 | 10 to 100 | ≤ 10 | C[C@@H]1[C@H](NC(=O)N(C)C)CCCN1c1cnc(C(N)=O)c(Nc2cc(C3CCOCC3)ns2)n1 [Example D-162, 5-[(2R,3R)-3-[(dimethylcarbamoyl)amino]-2-methylpiperidin-1-yl]-3-{[3-(oxan-4-yl)-1,2-thiazol-5-yl]amino}pyrazine-2-carboxamide]
10 | 1000 to 10000 | 10 to 100 | 10 to 100 | 10 to 100 | 10 to 100 | C[C@@H]1[C@H](NC(=O)c2ccc(C3CC3)cc2)CCCN1c1cnc(C(N)=O)c(Nc2ccc(N3CCN(C)CC3)c(F)c2)n1 [Example D-146, 5-[(2R,3R)-3-(4-cyclopropylbenzamido)-2-methylpiperidin-1-yl]-3-{[3-fluoro-4-(4-methylpiperazin-1-yl)phenyl]amino}pyrazine-2-carboxamide]
11 | 100 to 1000 | 10 to 100 | 10 to 100 | 10 to 100 | 10 to 100 | C[C@@H]1[C@H](NC(=O)N(C)C)CCCN1c1cnc(C(N)=O)c(Nc2ccc(OC3CCN(C4CCCC4)CC3)cc2)n1 [Example D-102, 3-({4-[(1-cyclopentylpiperidin-4-yl)oxy]phenyl}amino)-5-[(2R,3R)-3-[(dimethylcarbamoyl)amino]-2-methylpiperidin-1-yl]pyrazine-2-carboxamide]
12 | > 10000 | > 10000 | > 10000 | > 10000 | 1000 to 10000 | C[C@@H]1[C@H](NC(=O)c2ccc(C3CC3)cc2F)CCCN1c1cnc(C(N)=O)c(Nc2ccc3cccnc3c2)n1 [Example D-124, 5-[(2R,3R)-3-(4-cyclopropyl-2-fluorobenzamido)-2-methylpiperidin-1-yl]-3-[(quinolin-7-yl)amino]pyrazine-2-carboxamide]
13 | > 10000 | > 10000 | > 10000 | > 10000 | > 10000 | C[C@@H]1[C@H](NC(=O)c2ccc(C3CC3)cc2F)CCCN1c1cnc(C(N)=O)c(Nc2ccn(C)n2)n1 [Example D-129, 5-[(2R,3R)-3-(4-cyclopropyl-2-fluorobenzamido)-2-methylpiperidin-1-yl]-3-[(1-methyl-1H-pyrazol-3-yl)amino]pyrazine-2-carboxamide]
